Test results as given in patent US4269855A, “(3-Alkylamino-2-hydroxypropoxy)-furan-2-carboxylic acid anilides and physiologically tolerated acid addition salts thereof and medicaments containing them” (A. Nattermann & Cie. GmbH, priority 1979, dated 1981).
Structures can show the parent of a compound that is named as a salt.

How the values were obtained:
β-receptor [1] = molecular target: T1, β-receptor (Cavia porcellus, UniProt H0W3H1); test: Inhibition of isoprenalin-induced increase in pulse rate, isolated guinea pig right auricle; parameters: species or system guinea pig (Pirbright White); conditions: Bath, isoprenalin 5.8×10^-9 molar, probit analysis, read-out: ED50, inhibition of increase in pulse rate induced by isoprenalin
T1 sequence (H0W3H1 1-470): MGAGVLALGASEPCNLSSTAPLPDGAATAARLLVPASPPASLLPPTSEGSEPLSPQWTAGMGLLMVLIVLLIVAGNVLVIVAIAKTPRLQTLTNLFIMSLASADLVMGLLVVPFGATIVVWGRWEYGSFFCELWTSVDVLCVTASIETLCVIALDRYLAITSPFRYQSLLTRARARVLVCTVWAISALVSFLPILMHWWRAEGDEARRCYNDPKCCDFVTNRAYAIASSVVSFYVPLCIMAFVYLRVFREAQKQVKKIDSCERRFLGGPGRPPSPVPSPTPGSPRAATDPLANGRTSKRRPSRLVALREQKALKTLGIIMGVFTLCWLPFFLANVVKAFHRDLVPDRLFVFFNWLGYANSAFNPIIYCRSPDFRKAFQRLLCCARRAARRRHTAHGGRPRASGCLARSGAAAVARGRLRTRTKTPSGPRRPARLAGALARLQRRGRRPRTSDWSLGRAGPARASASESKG

β-receptor [2] = test: β-receptor blocking action, isolated organs and whole animal (overall statement); conditions: in words
Protocol: (§1) The ventricular pressure of mongrel dogs, anesthetized with chloralose-urethane, was determined, together with other circulation parameters, with the aid of a Millar tip catheter (type PC 350 A, Millar Instruments, Houston, Tex.) introduced into the left heart ventricle, and the maximum rate of pressure increase (dp/dtmax) was determined by differentiation (HSE operational amplifier, Hugstetten). This rate serves as a measure of the contractile force.

β-receptor [3] = molecular target: T1, β-receptor; test: Inhibition of isoprenalin-induced increase in contractile force, isolated guinea pig left auricle; parameters: species or system guinea pig (Pirbright White); conditions: Bath, isoprenalin 3.2×10^-8 molar, probit analysis, read-out: ED50, inhibition of increase in contractile force induced by isoprenaline
β-receptor [4] = molecular target: β-receptor (Canis lupus familiaris, UniProt P79148); test: Inhibition of isoprenalin-induced increase in contractile force (dp/dtmax), anaesthetised dogs; assay type: in vivo, mongrel dogs; conditions: for ED50: dog, anaesthetised dogs, isoprenalin 0.5 μg/kg i.v., determined graphically
β-receptor (Canis lupus familiaris, UniProt P79148), sequence (P79148 whole entry): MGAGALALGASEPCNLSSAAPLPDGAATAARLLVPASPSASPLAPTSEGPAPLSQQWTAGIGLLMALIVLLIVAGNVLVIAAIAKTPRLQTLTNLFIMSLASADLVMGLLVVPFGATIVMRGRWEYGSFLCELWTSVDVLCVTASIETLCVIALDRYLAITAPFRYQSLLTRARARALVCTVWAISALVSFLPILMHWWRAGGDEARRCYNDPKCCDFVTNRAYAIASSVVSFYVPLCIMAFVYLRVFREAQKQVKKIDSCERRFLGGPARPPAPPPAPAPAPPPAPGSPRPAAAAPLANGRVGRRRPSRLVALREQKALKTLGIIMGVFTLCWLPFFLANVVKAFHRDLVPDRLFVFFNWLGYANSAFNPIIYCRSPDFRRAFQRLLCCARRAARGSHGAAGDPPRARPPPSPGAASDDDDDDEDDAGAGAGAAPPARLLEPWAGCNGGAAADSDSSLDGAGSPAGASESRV
Protocol: as §1

in vivo = test: in vivo
Protocol: The acute toxicity was determined on NMRI mice by intravenous or oral administration of increasing doses of the compounds of the invention. The death rates were determined within the 7-day follow-up period and the average lethal dose was determined by probit analysis.

CC(C)(C)NCC(O)COc1ccccc1NC(=O)c1ccco1 (centres unmarked) [Example 1, 2'-(2-hydroxy-3-tert.-butylaminopropoxy)-furan-2-carboxylic acid anilide]
IC50 (β-receptor [1]): 98 nM
β-receptor blocking action / pharmacological activity (β-receptor [2]): strong β-receptor blocking action both on isolated organs and on the whole animal
IC50 (β-receptor [3]): 290 nM
ED50 (β-receptor [4]; intraduodenal): 0.11 mg/kg
ED50 (β-receptor [4]; intravenous): 0.025 mg/kg
action when administered intraduodenally (β-receptor [4]; intraduodenal, in words): good action
selectivity ratio (in vivo; in vivo): 4560
toxicity (in vivo; in words): very favorable
LD50 at 168 h (in vivo; mouse, in vivo, iv): 55 mg/kg
LD50 at 168 h (in vivo; mouse, in vivo, po): 502 mg/kg
"therapeutic range" quotient (LD50/ED50), times as high as the compounds already known (in vivo; versus propranolol hydrochloride and practolol hydrochloride): 1.5-3 times

CC(=O)Nc1ccc(OCC(O)CNC(C)C)cc1 (centres unmarked) [Practolol Hydrochloride, reference compound]
IC50 (β-receptor [1]): 710 nM
IC50 (β-receptor [3]): 2300 nM
ED50 (β-receptor [4]; intraduodenal): 0.9 mg/kg
selectivity ratio (in vivo; in vivo): 3190
LD50, acute toxicity (in vivo; mouse, in vivo, iv, 168 h): 148 mg/kg
LD50 at 168 h (in vivo; mouse, in vivo, po): 2870 mg/kg
